Results published in patent US20120282167A1, “METHOD FOR PREDICTING THE SENSITIVITY OF A TUMOR TO AN EPIGENETIC TREATMENT” (INSTITUT CURIE, priority 2009, published 2012).
Blank lines part the entries; values can stand above or below the molecule they belong to.

Key:
Assay type in all cases: cell-based, human
[1] = test system: genes located in the regions of downregulation in cell line CL1207; assay: Re-expression of genes in the regions of downregulation, RT-qPCR, CL1207 cell line; details: for re-expression of genes in downregulated regions 2-7, 3-2, 3-5, 7-2, 14-1, 19-3A and 19-3B: 300 nM TSA 16 hours, 5 μM 5-aza-deoxycytidine 72 hours, or 5 μM 5-aza-deoxycytidine 48 hours followed by 300 nM TSA 10 hours; for re-expression of genes in regions 6-7 and 17-7: same treatments, effect if fold-change >1.5
Text: FIG. 3: […] The treatments were scored as having an effect (resulting in re-expression) if the fold-change between treated and non-treated was greater than 1.5. […] With both methods, all samples were run in duplicate. For all experiments involving […] and CL1207 both methods were used.

[2] = test system: cell lines with the RES phenotype (TCCSUP, HT1376, JMSU1 and CL1207); assay: Trichostatin A sensitivity assay (living cells counted after 72 hours, treated versus non-treated); details: on average for TCCSUP, doses 100 nM to 500 nM, read-out: IC50 (half maximal inhibitory concentration), growth inhibition
Experimental: (§1) FIG. 13: Cell viability after treatment with various doses of trichostatin A in bladder cancer cell lines with or without the RES phenotype and NHU cells. The percentage of surviving treated versus non-treated cells as a function of TSA concentration for various bladder cancer (MGHU3, RT112, T24, TCCSUP, HT1376, JMSU1, CL1207) and normal (NHU) cell lines is indicated. The number of cells surviving post treatment with TSA for 72 hours was counted and compared to control (no treatment) cultures. Cell lines with the RES phenotype are indicated with full symbols (TCCSUP, HT1376, JMSU1, CL1207) whereas cell lines without the RES phenotype (NHU, MGHU3, RT112, T24) are indicated with empty symbols. The error bars indicate the mean variation between two independent experiments.
(§2) All bladder cancer and NHU cell lines were seeded in 12-well plates at a density of 5×10^4 cells/well. Cultures were treated the next day, in duplicate, with various doses of trichostatin A, from 100 nM to 500 nM, with two wells left untreated. After 72 hours, the living cells in each treated well were harvested and counted and compared to the numbers of cells in the non-treated wells. The resulting ratio was used to assess sensitivity to trichostatin A.
(§3) The RES phenotype was characterized by strong histone K9 and K27 methylation and K9 hypoacetylation, but extremely rare DNA methylation. […]

[3] = test system: cell lines without the RES phenotype (MGHU3, RT112 and T24) and NHU cells; assay: as above; details: doses 100 nM to 500 nM, read-out: IC50 (half maximal inhibitory concentration), growth inhibition
Experimental: as §1, §2, §3

[4] = test system: H3K9me3, H3K27me3 and H3K9ac at gene promoters in CL1207 cells; assay: Chromatin immunoprecipitation (ChIP) of histone modifications in CL1207 before and after TSA; details: 300 nM TSA for 16 h
Text: FIG. 5: Analyses of epigenetic modifications in regions 2-7 and 19-3A (a) Schematic map of region 2-7 (not to scale) with CpG islands, according to the UCSC browser. The number of CpG in each island is indicated. (b) DNA methylation analyses for region 2-7: bisulfite sequencing analyses for CpG 141 and CpG 39 covering a promoter region. In each case, T1207 DNA, CL1207 DNA, NHU DNA and SssI-methylated DNA (“Met. DNA”) were studied. Each row represents an individual clone, and each box (methylated in black, unmethylated in white) represents an individual CpG site. The curved arrows indicate the transcription start sites. (c) ChIP assays were performed for promoters in region 2-7 with antibodies against trimethyl H3K9 (left panel), trimethyl H3K27 (middle panel) and acetyl H3K9 (right panel). […] (d) Schematic map of region 19-3A with CpG islands. (e) ChIP analyses for region 19-3A as in (c).
FIG. 6: Analyses of epigenetic modifications in region 3-2. (a) Schematic map of region 3-2 (not to scale) with CpG islands, according to the UCSC browser. The number of CpGs in each island is indicated. (b) DNA methylation analyses for region 3-2: bisulfite sequencing analyses for the three CpGs covering a promoter region: CpG 74, 59 and 68. In each case, DNA from T1207, CL1207 and NHU and SssI-methylated DNA (“Met. DNA”) were studied. Each row represents an individual clone and each box represents an individual CpG site. A black box indicates methylation and a white box no methylation. The curved arrows indicate the transcription start sites. (c) Methylation analysis of DLEC1 promoter by bisulfite sequencing in five tumor samples showing downregulation of region 3-2: T195, T259, T447, T910 and T1448. […]
Chromatin immunoprecipitation (ChIP) assays were carried out in duplicate in three 150 cm^2 dishes for untreated CL1207, CL1207 treated with 300 nM TSA for 16 h, TCCSUP, RT112 and NHU cells. […] The amount of immunoprecipitated target was determined by real-time PCR, in duplicate, using the ABI PRISM 7900HT Sequence Detection System. […]

[5] = test system: genes within the seven epigenetic regions in TCCSUP, HT1376 and JMSU1 cells; assay: Re-expression of genes of the seven RES regions after TSA, RT-qPCR (TLDA), cell lines TCCSUP, HT1376 and JMSU1
Experimental: (§4) FIG. 10: Characterization of the regional epigenetic phenotype in bladder cancer cell lines. (a) Comparison of mRNA expression for genes in region 2-7 before and after treatment with TSA in bladder cancer cell lines and NHU cells; results obtained for the CL1207 cells (from FIG. 3) are also shown. Transcript values were measured by RT-qPCR using TLDA (see Materials and Methods in experimental section). The ratio between treated and non-treated cells is shown. Error bars represent the variation between the means of two independent experiments of TSA treatment. (b) Same comparison for region 3-2. (c) Same comparison for region 19-3A. (d) Summary of the effects of TSA treatment on all bladder cancer and NHU cell lines studied. Only groups of genes in which at least two genes were re-expressed after treatment are considered (see FIG. 11). (e) ChIP analysis in TCCSUP and RT112 cells for regions 2-7, 3-2 and 19-3A, with an antibody against trimethyl residues on lysine 9 of histone 3.
(§5) FIG. 11: Comparison of the mRNA levels of the genes in regions 3-5, 7-2, 14-1 and 19-3B in bladder cancer and normal cells before and after treatment with TSA. mRNA levels were assessed by RT-qPCR using TLDA (see Materials and Methods in experimental section). The ratio between treated versus non-treated cells is shown. Error bars represent the variation between two independent experiments. […]

[6] = test system: genes within the seven epigenetic regions in NHU, MGHU3, RT112 and T24 cells; assay: Re-expression of genes of the seven RES regions after TSA, RT-qPCR (TLDA), NHU, MGHU3, RT112 and T24
Experimental: as §4, §5

[7] = most of the genes in all three regions

Compound: Nc1ncn([C@H]2C[C@H](O)[C@@H](CO)O2)c(=O)n1 [5-aza-deoxycytidine]
re-expression of genes in downregulated regions 2-7, 3-2, 3-5, 7-2, 14-1, 19-3A and 19-3B ([1]; effect if ratio >1.5): reexpression of most of the genes in seven regions | genes re-expressed after 5-aza-deoxycytidine treatment alone ([1]; BSN (3-5), SKAP2, HOXA4, HOXA5 (7-2), EFS, AP1G2 (14-1), 5 μM, 72 hours): re-expressed | re-expression of genes in regions 6-7 and 17-7 [1]: either to no re-expression or re-expression of only one isolated gene

Compound: Nc1ccccc1NC(=O)c1ccc(CNC(=O)OCc2cccnc2)cc1 [MS275]
gene re-expression in repressed regions on chromosome 3 (VILL to ACAA1) and 2 (HOXD8 to HOXD1) ([1]; compared with TSA, effect if ratio >1.5): enabled gene re-expression in the studied regions as well as did TSA

IC50 [2]: 100 nM | IC50 [3]: 500 nM
Compound: CC(/C=C/C(=O)NO)=C\[C@@H](C)C(=O)c1ccc(N(C)C)cc1 [TSA, trichostatin A]
re-expression of genes in downregulated regions 2-7, 3-2, 3-5, 7-2, 14-1, 19-3A and 19-3B ([1]; effect if ratio >1.5): reexpression of most of the genes in seven regions | re-expression of genes in regions 6-7 and 17-7 [1]: either to no re-expression or re-expression of only one isolated gene | H3K9 and H3K27 trimethylation at promoters of BSN, HOXA1, DHRS2 and JAK3 (regions 3-5, 7-2, 14-1, 19-3B) [4]: these marks were decreased | levels of active mark (H3K9ac) at promoters, regions 2-7, 3-2 and 19-3A [4, 7]: increased the levels of the active mark | levels of inactive marks (H3K9me3, H3K27me3) at promoters, regions 2-7, 3-2 and 19-3A [4, 7]: decreased the levels of the inactive marks | re-expression of the regions in TCCSUP cell line ([5]; TCCSUP, TSA treatment): all regions were re-expressed | re-expression of genes within the seven epigenetic regions ([5]; second group: TCCSUP, HT1376 and JMSU1, 300 nM TSA 16 hours): gene re-expression was observed for most of the silenced regions after treatment | re-expression of the regions in RT112 cells ([6]; RT112, TSA treatment): no region was re-expressed, except two genes in region 7-2 | re-expression of genes within the seven epigenetic regions ([6]; first group: NHU, MGHU3, RT112 and T24, 300 nM TSA 16 hours): most of the genes were not re-expressed, except for a few isolated genes in some cell lines
